In patent publication US12071404B2, “Aza (indole)-, benzothiophene-, and benzofuran-3-sulfonamides” (UCB Pharma GmbH, priority 2016, dated 2024):

Columns and labels:
GPR17 [1] = molecular target: T1, GPR17 (Homo sapiens, UniProt Q13304); experiment: cAMP accumulation functional assay (HTRF, Schild analysis); assay type: cell-based; parameters: host or cells: Flp-In T-REx CHO; conditions: CHO hGPR17 cells, Schild analysis vs MDL29,951, 5 μM forskolin, read-out: cAMP assay pA2 (converted)
In short: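 Antagonist affinity (pA2) came from Schild plots of dose ratios, based on MDL29,951 concentration-response curves fitted by 4-parameter logistic. The read-out was HTRF cAMP in 5,000 doxycycline-induced CHO hGPR17 cells per well, with 30 min compound preincubation and 60 min stimulation, at room temperature in pH 7.4 buffer.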

GPR17 [2] = molecular target: T1, GPR17; experiment: Calcium mobilization functional assay (GPR17 Ca2+ assay); assay type: cell-based; parameters: host or cells: Flp-In T-REx CHO; conditions: CHO hGPR17 cells, inhibition of 50 nM MDL29,951, Calcium 5 dye, FLIPR; read-out: Ca2+ assay pIC50 (converted)
In short: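 pIC50 values were fitted with a 4-parameter logistic curve. They reflect test-compound inhibition of cytosolic Ca2+ release evoked by 50 nM MDL29,951, tracked as Calcium 5 fluorescence at room temperature. Cells were CHO Flp-In T-REx stably carrying human GPR17, induced with doxycycline 1 μg/mL for 16-20 h.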

T1 sequence (Q13304 whole entry): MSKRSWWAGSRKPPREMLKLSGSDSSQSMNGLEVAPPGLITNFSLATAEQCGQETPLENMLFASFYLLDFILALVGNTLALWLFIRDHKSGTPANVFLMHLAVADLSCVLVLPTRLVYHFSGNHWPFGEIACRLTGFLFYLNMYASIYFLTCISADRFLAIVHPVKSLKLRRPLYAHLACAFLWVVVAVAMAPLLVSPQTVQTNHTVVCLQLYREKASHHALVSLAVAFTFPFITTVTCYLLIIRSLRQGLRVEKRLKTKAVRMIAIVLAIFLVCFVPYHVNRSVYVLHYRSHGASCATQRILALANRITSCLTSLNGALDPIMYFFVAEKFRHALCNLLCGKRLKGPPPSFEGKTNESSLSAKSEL

Row | Kb (GPR17 [1]) [nM] | IC50 (GPR17 [2]) [nM] | Compound
1 | 3.16 to 31.6 | < 3.16 | N#Cc1cc(F)c(NS(=O)(=O)c2c[nH]c3cc(Cl)ccc23)c(F)c1 [Compound I-182, 6-chloro-N-(4-cyano-2,6-difluorophenyl)-1H-indole-3-sulfonamide]
2 | 3.16 to 31.6 | 3.16 to 31.6 | CCOC(=O)C1CC1c1cc(F)c(NS(=O)(=O)c2c[nH]c3cc(Cl)ccc23)nc1F (centres unmarked) [Compound I-359, ethyl 2-(6-{[(6-chloro-1H-indol-3-yl)sulfonyl]amino}-2,5-difluoropyridin-3-yl)cyclopropanecarboxylate]
3 | 3.16 to 31.6 | 3.16 to 31.6 | COCCOc1cc(F)c(NS(=O)(=O)c2c[nH]c3cc(Cl)ccc23)nc1F [Compound I-365, 6-chloro-N-[3,6-difluoro-5-(2-methoxyethoxy)pyridin-2-yl]-1H-indole-3-sulfonamide]
4 | 3.16 to 31.6 | < 3.16 | N#Cc1cc(F)c(NS(=O)(=O)c2c[nH]c3cc(OCc4ccccc4)ccc23)cc1F [Compound I-153, 6-(benzyloxy)-N-(4-cyano-2,5-difluorophenyl)-1H-indole-3-sulfonamide]
5 | > 31.6 | > 31.6 | O=S(=O)(Nc1ccc(F)c2nsnc12)c1c[nH]c2nc(Cl)ccc12 [Compound I-226, 6-chloro-N-(7-fluoro-2,1,3-benzothiadiazol-4-yl)-1H-pyrrolo[2,3-b]pyridine-3-sulfonamide]
6 | > 31.6 | > 31.6 | CS(=O)(=O)c1ccc2c(S(=O)(=O)Nc3cccc4c3OC(F)(F)O4)c[nH]c2c1 [Compound I-240, N-(2,2-difluoro-1,3-benzodioxol-4-yl)-6-methylsulfonyl-1H-indole-3-sulfonamide]
7 | 3.16 to 31.6 | 3.16 to 31.6 | N#Cc1ccc(NS(=O)(=O)c2csc3cc(Cl)ccc23)cc1 [Compound I-311, 6-chloro-N-(4-cyanophenyl)-1-benzothiophene-3-sulfonamide]
8 | 3.16 to 31.6 | > 31.6 | O=S(=O)(Nc1cccc2c1OC(F)(F)O2)c1c[nH]c2nc(Cl)ccc12 [Compound I-100, 6-chloro-N-(2,2-difluoro-1,3-benzodioxol-4-yl)-1H-pyrrolo[2,3-b]pyridine-3-sulfonamide]
9 | < 3.16 | < 3.16 | COc1nc(NS(=O)(=O)c2c[nH]c3c(F)c(Cl)ccc23)c(F)cc1Cl [Compound I-319, 6-chloro-N-(5-chloro-3-fluoro-6-methoxypyridin-2-yl)-7-fluoro-1H-indole-3-sulfonamide]
10 | 3.16 to 31.6 | 3.16 to 31.6 | O=S(=O)(Nc1cc(F)c(Cl)cc1F)c1coc2cc(Cl)ccc12 [Compound I-198, 6-chloro-N-(4-chloro-2,5-difluorophenyl)-1-benzofuran-3-sulfonamide]
11 | 3.16 to 31.6 | 3.16 to 31.6 | COc1nc(NS(=O)(=O)c2c[nH]c3cc(N)ccc23)c(F)cc1CC#N [Compound I-352, 6-amino-N-[5-(cyanomethyl)-3-fluoro-6-methoxypyridin-2-yl]-1H-indole-3-sulfonamide]
12 | 3.16 to 31.6 | 3.16 to 31.6 | N#Cc1ccc(NS(=O)(=O)c2c[nH]c3cc(-c4ccsc4)ccc23)c(F)c1 [Compound I-230, N-(4-cyano-2-fluorophenyl)-6-(thiophen-3-yl)-1H-indole-3-sulfonamide]
13 | < 3.16 | < 3.16 | O=S(=O)(Nc1ccc(I)cc1F)c1c[nH]c2cc(Cl)ccc12 [Compound I-140, 6-chloro-N-(2-fluoro-4-iodophenyl)-1H-indole-3-sulfonamide]
14 | < 3.16 | < 3.16 | O=S(=O)(Nc1cc(F)c(OC(F)F)cc1F)c1c[nH]c2nc(Cl)ccc12 [Compound I-266, 6-chloro-N-[4-(difluoromethoxy)-2,5-difluorophenyl]-1H-pyrrolo[2,3-b]pyridine-3-sulfonamide]
15 | < 3.16 | 3.16 to 31.6 | Cc1c(Br)ccc2c(S(=O)(=O)Nc3ncc(Cl)cc3F)c[nH]c12 [Compound I-326, 6-bromo-N-(5-chloro-3-fluoropyridin-2-yl)-7-methyl-1H-indole-3-sulfonamide]
16 | 3.16 to 31.6 | 3.16 to 31.6 | O=S(=O)(Nc1cccc2c1OC(F)(F)O2)c1c[nH]c2cc(Cl)ccc12 [Compound I-123, 6-chloro-N-(2,2-difluoro-1,3-benzodioxol-4-yl)-1H-indole-3-sulfonamide]
17 | < 3.16 | < 3.16 | COc1nc(NS(=O)(=O)c2c[nH]c3cc(Cl)c(Br)cc23)c(F)cc1CC#N [Compound I-324, 5-bromo-6-chloro-N-[5-(cyanomethyl)-3-fluoro-6-methoxypyridin-2-yl]-1H-indole-3-sulfonamide]
18 | < 3.16 | 3.16 to 31.6 | N#Cc1ccc(NS(=O)(=O)c2c[nH]c3cc(-c4cccs4)ccc23)c(F)c1 [Compound I-235, N-(4-cyano-2-fluorophenyl)-6-(thiophen-2-yl)-1H-indole-3-sulfonamide]
19 | < 3.16 | < 3.16 | COc1c(Cl)ccc2c(S(=O)(=O)Nc3nc(F)c(Cl)cc3F)c[nH]c12 [Compound I-310, 6-chloro-N-(5-chloro-3,6-difluoropyridin-2-yl)-7-methoxy-1H-indole-3-sulfonamide]
20 | 3.16 to 31.6 | < 3.16 | N#Cc1ccc(NS(=O)(=O)c2c[nH]c3cc(Cl)ccc23)cc1 [Compound I-12, 6-chloro-N-(4-cyanophenyl)-1H-indole-3-sulfonamide]
21 | < 3.16 | < 3.16 | CC(C)c1ccc2c(S(=O)(=O)Nc3ccc(C#N)cc3F)c[nH]c2c1 [Compound I-170, N-(4-cyano-2-fluorophenyl)-6-(propan-2-yl)-1H-indole-3-sulfonamide]
22 | 3.16 to 31.6 | 3.16 to 31.6 | CS(=O)(=O)c1c(Cl)ccc2c(S(=O)(=O)Nc3cc(F)c(Cl)cc3F)c[nH]c12 [Compound I-261, 6-chloro-N-(4-chloro-2,5-difluorophenyl)-7-(methylsulfonyl)-1H-indole-3-sulfonamide]
23 | < 3.16 | < 3.16 | COc1nc(NS(=O)(=O)c2c[nH]c3c(Br)c(Cl)ccc23)c(F)cc1Cl [Compound I-321, 7-bromo-6-chloro-N-(5-chloro-3-fluoro-6-methoxypyridin-2-yl)-1H-indole-3-sulfonamide]
24 | 3.16 to 31.6 | < 3.16 | N#Cc1ccc(NS(=O)(=O)c2c[nH]c3cc(OCc4ccccc4)ccc23)c(F)c1 [Compound I-154, 6-(benzyloxy)-N-(4-cyano-2-fluorophenyl)-1H-indole-3-sulfonamide]
25 | 3.16 to 31.6 | 3.16 to 31.6 | COc1nc(NS(=O)(=O)c2coc3cc(Cl)ccc23)c(F)cc1Cl [Compound I-346, 6-chloro-N-(5-chloro-3-fluoro-6-methoxypyridin-2-yl)-1-benzofuran-3-sulfonamide]
26 | 3.16 to 31.6 | 3.16 to 31.6 | COc1ccc2c(S(=O)(=O)Nc3ccc(Br)cc3F)c[nH]c2c1 [Compound I-293, N-(4-bromo-2-fluorophenyl)-6-methoxy-1H-indole-3-sulfonamide]
27 | < 3.16 | < 3.16 | COc1cc(C#N)c(F)cc1NS(=O)(=O)c1c[nH]c2c1ccc1ccccc12 [Compound I-289, N-(4-cyano-5-fluoro-2-methoxyphenyl)-1H-benzo[g]indole-3-sulfonamide]
28 | 3.16 to 31.6 | 3.16 to 31.6 | O=S(=O)(Nc1ccc(C(F)(F)F)cc1F)c1c[nH]c2nc(Cl)ccc12 [Compound I-296, 6-chloro-N-[2-fluoro-4-(trifluoromethyl)phenyl]-1H-pyrrolo[2,3-b]pyridine-3-sulfonamide]
